Like-named read-outs stand apart in the source and are kept apart here.

In one assay the target is IRAK4 enzyme (Homo sapiens (Human), UniProt Q9NWZ3). The experiment in a line: IRAK4 Biochemical Assay (TR-FRET, STK1 KinEASE). As for the experimental part: IRAK4 enzyme (Carna Biosciences, Chuo-ku, Kobe, Japan) activity was measured by detecting phosphorylated peptide substrate formation using an antibody against the phosphorylated peptide substrate. This is a time-resolved fluorescence resonance energy transfer (TR-FRET) immunoassay, based on the STK1 KinEASE Assay (Cisbio, Bedford, Mass.). The assay was designed as a simple two-step, endpoint assay (a 5 μl enzyme reaction followed by 5 μl stop and detect Solution) performed in ProxiPlate-384 Plus plates (Perkin Elmer, Waltham, Mass.). […] Compounds diluted in DMSO were spotted into 384 well plates using a Labcyte® Echo 550 Liquid Handling System prior to addition of IRAK4 enzyme and peptide substrate. Reaction solutions were delivered using a Multi-Flo (Bio-Tek Instruments). The enzyme and peptide solution was incubated with compound for 15 minutes at room temp before the reaction was initiated by the addition of ATP. The standard 5 μl reaction mixture contained 500 μM ATP, 2 μM peptide (STK1 Peptide), 0.75 nM of IRAK4 in reaction buffer (50 mM HEPES, pH 7.0, 0.02% NaN3, 0.01% BSA, 0.1 mM Orthovanadate, 5 mM MgCl2, 0.025% NP-40, 1 mM DTT). After 120 min of incubation at room temperature, 5 μl of Stop and Detect Solution (1:100 Cryptate labeled anti-phosphorylated peptide antibody solution and 125 nM Tracer in a 50 mM HEPES pH 7.0 detection buffer containing sufficient EDTA) was added. The plate was then further incubated for 60 minutes at room temperature and read on Envision 2103 Multilabeled reader (PerkinElmer) with excitation/emission/FRET emission at 340 nm/615 nm/665 nm, respectively. Fluorescence intensities at 615 nm and 665 nm emission wavelengths were expressed as a ratio (665 nm/615 nm). Percentage of inhibition was calculated as below: % Inhibition=100×(RatioSample−Ratio0% Inhibition)/(Ratio100% Inhibition−Ratio0% Inhibition)
Sequence of IRAK4 enzyme (Q9NWZ3 whole entry): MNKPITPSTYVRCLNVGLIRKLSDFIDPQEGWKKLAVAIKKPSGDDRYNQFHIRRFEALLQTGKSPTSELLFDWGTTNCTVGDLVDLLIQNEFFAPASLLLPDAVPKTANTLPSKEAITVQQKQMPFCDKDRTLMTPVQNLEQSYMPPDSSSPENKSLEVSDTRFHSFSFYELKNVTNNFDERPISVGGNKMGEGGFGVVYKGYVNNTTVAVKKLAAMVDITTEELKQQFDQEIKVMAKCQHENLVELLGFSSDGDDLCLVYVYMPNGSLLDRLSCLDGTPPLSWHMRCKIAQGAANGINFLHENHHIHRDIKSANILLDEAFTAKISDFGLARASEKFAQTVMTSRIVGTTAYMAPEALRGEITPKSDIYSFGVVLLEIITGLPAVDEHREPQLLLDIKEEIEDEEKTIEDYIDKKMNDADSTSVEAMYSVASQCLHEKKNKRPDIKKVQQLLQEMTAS
The 0% inhibition value comes from control wells lacking inhibitor.
A general note: TR-FRET usually uses a lanthanide donor and a delayed reading to cut background.

The test system of another assay is TNFα. The experiment in a line: IRAK4 Monocyte TNFα Cell Based Assay. The following applies: Homo sapiens, Monocyte, read-out: EC50MONO TNF HTRF. On the set-up: species or system human. The procedure: IRAK4 Monocyte TNFα Cell Based Assay Procedure:
The cell suspension was then plated at a density of 5,000 cells/well onto black 384 well Greiner clear bottom plates. Plates were pre-spotted with test compounds and serially diluted in DMSO where 40 nL/well were delivered using the Echo 550 acoustic liquid dispenser (Labcyte®) for a final DMSO concentration of 0.1%. Plated cells were treated with compound for 1 hour at 37° C. Cells were then stimulated with 50 pg/ml of LPS (Sigma) excluding outside columns of plate used for unstimulated cell control wells. Cells were incubated for an additional 4 hours at 37° C. Cells were then spun out of the media and 5μl of sample were taken and analyzed for total TNFα content using the TR-FRET Human TNFα detection system (CisBio). This system utilizes two labeled antibodies (cryptate and XL665) that bind to two different epitopes of the TNFα molecule and produce FRET signal proportional to the concentration of TNFα in the sample. Detection antibodies are mixed 50:50 and 5 μL were dispensed into each well. Plates were covered with clear seals and incubated at room temp overnight. […] Percent of control was calculated as follows: % Control=100×(RatioSample−Ratio0% Stimulation)/(Ratio100% Stimulation−Ratio0% Stimulation) where unstimulated cells (0% stimulation) were the negative control and stimulated cells (100% stimulation) were used as the positive control.

The mark [1] stands for this setting: second part of Table 2 (compounds 33-343), unit inferred, read-out: IC50 IRAK4-HTBS.
Setting [2] is: human monocytes, second part of Table 2 (compounds 33-343), unit inferred.

In the case of `CC(=O)NC1CCC(F)(c2nnc(-c3cnc(-c4ccc5cc(C#N)cnn45)cc3NC3COC3)s2)CC1` (single isomer, unassigned) [Example 195, N-(4-(5-(6-(3-cyanopyrrolo[1,2-b]pyridazin-7-yl)-4-(oxetan-3-ylamino)pyridin-3-yl)-1,3,4-thiadiazol-2-yl)-4-fluorocyclohexyl)acetamide], at IRAK4 enzyme (setting [1]), the IC50 – broadly, the midpoint of a concentration-inhibition curve – amounted to 1.09 nM.

With `CC(=O)NC1CCC(F)(c2nnc(-c3cnc(-c4ccc5cc(C#N)cnn45)cc3NC3COC3)s2)CC1` (single isomer, unassigned) [Example 196, N-(4-(5-(6-(3-cyanopyrrolo[1,2-b]pyridazin-7-yl)-4-(oxetan-3-ylamino)pyridin-3-yl)-1,3,4-thiadiazol-2-yl)-4-fluorocyclohexyl)acetamide], at IRAK4 enzyme (setting [1]), the IC50 came to 1.62 nM.

`CC1(O)CCC(c2nnc(-c3cnc(-c4ccc5cc(C#N)cnn45)cc3NC3COC3)s2)CC1` (single isomer, unassigned) [Example 206, 7-(5-(5-(4-hydroxy-4-methylcyclohexyl)-1,3,4-thiadiazol-2-yl)-4-(oxetan-3-ylamino)pyridin-2-yl)pyrrolo[1,2-b]pyridazine-3-carbonitrile]: the 50% inhibitory concentration (IC50) at IRAK4 enzyme (setting [1]) came to 0.56 nM.

In the case of `CC(=O)N1CCN(c2nnc(-c3cnc(-c4ccc5cc(C#N)cnn45)cc3NC(C)C)s2)CC1` [Compound 232, 7-(5-(5-(4-acetylpiperazin-1-yl)-1,3,4-thiadiazol-2-yl)-4-(isopropylamino)pyridin-2-yl)pyrrolo[1,2-b]pyridazine-3-carbonitrile], the EC50 in the assay on TNFα (setting [2]) is 7.4 nM. Also, on IRAK4 enzyme, inhibition was half-maximal at 0.62 nM (IC50).

Regarding `CC(=O)N1C2CC1CN(c1nnc(-c3cnc(-c4ccc5cc(C#N)cnn45)cc3NC(C)C)s1)C2` [Compound 258, 7-(5-(5-(6-acetyl-3,6-diazabicyclo[3.1.1]heptan-3-yl)-1,3,4-thiadiazol-2-yl)-4-(isopropylamino)pyridin-2-yl)pyrrolo[1,2-b]pyridazine-3-carbonitrile], the EC50 in the assay on TNFα came to 5.8 nM. Further, the IC50 at IRAK4 enzyme was found to be 1.26 nM.

For the compound `CC(=O)N1CC2CCC(C1)N2c1nnc(-c2cnc(-c3ccc4cc(C#N)cnn34)cc2NC(C)C)s1` [Compound 260, 7-(5-(5-(3-acetyl-3,8-diazabicyclo[3.2.1]octan-8-yl)-1,3,4-thiadiazol-2-yl)-4-(isopropylamino)pyridin-2-yl)pyrrolo[1,2-b]pyridazine-3-carbonitrile], the EC50 in the assay with TNFα was 15.8 nM. Moreover, the 50% inhibitory concentration (IC50) against IRAK4 enzyme was determined as 2.56 nM.

Regarding `CC(=O)N1CC2CC(C1)N2c1nnc(-c2cnc(-c3ccc4cc(C#N)cnn34)cc2NC(C)C)s1` [Compound 261, 7-(5-(5-(3-acetyl-3,6-diazabicyclo[3.1.1]heptan-6-yl)-1,3,4-thiadiazol-2-yl)-4-(isopropylamino)pyridin-2-yl)pyrrolo[1,2-b]pyridazine-3-carbonitrile], the EC50 in the assay with TNFα is 18.3 nM. In addition, the half-maximal inhibitory concentration (IC50) against IRAK4 enzyme was found to be 0.73 nM.

Regarding `CC(=O)N1C2CCC1CN(c1nnc(-c3cnc(-c4ccc5cc(C#N)cnn45)cc3NC3(C)COC3)s1)C2` [Compound 264, 7-(5-(5-(8-acetyl-3,8-diazabicyclo[3.2.1]octan-3-yl)-1,3,4-thiadiazol-2-yl)-4-((3-methyloxetan-3-yl)amino)pyridin-2-yl)pyrrolo[1,2-b]pyridazine-3-carbonitrile], in the assay with TNFα, the EC50 stood at 2.7 nM. 0.59 nM corresponded to half-maximal inhibition against IRAK4 enzyme (IC50).

For the compound `CC(=O)N1C[C@H]2COC[C@@H](C1)N2c1nnc(-c2cnc(-c3ccc4cc(C#N)cnn34)cc2NC(C)C)s1` [Compound 266, 7-(5-(5-((1R,5S)-7-acetyl-3-oxa-7,9-diazabicyclo[3.3.1]nonan-9-yl)-1,3,4-thiadiazol-2-yl)-4-(isopropylamino)pyridin-2-yl)pyrrolo[1,2-b]pyridazine-3-carbonitrile], the EC50 in the assay with TNFα came out at 3.2 nM. Moreover, on IRAK4 enzyme (setting [1]), the 50% inhibitory concentration (IC50) worked out at 0.49 nM.

As to `CC(=O)N1[C@@H]2COC[C@H]1CN(c1nnc(-c3cnc(-c4ccc5cc(C#N)cnn45)cc3NC3CCOCC3)s1)C2` [Compound 269, 7-(5-(5-((1R,5S)-9-acetyl-3-oxa-7,9-diazabicyclo[3.3.1]nonan-7-yl)-1,3,4-thiadiazol-2-yl)-4-((tetrahydro-2H-pyran-4-yl)amino)pyridin-2-yl)pyrrolo[1,2-b]pyridazine-3-carbonitrile], the EC50 in the assay on TNFα was 5.8 nM. Also, it took 0.8 nM to reach half-maximal inhibition against IRAK4 enzyme (IC50).

On to `CC(C)Nc1cc(-c2ccc3cc(C#N)cnn23)ncc1-c1nnc(CC#N)s1` [Compound 321, 7-(5-(5-(cyanomethyl)-1,3,4-thiadiazol-2-yl)-4-(isopropylamino)pyridin-2-yl)pyrrolo[1,2-b]pyridazine-3-carbonitrile], for which, in the assay with TNFα (setting [2]), the EC50 was 53.5 nM. The same compound registered a half-inhibitory concentration (IC50) against IRAK4 enzyme of 1.46 nM.

As for `CC(C)Nc1cc(-c2ccc3cc(C#N)cnn23)ncc1-c1nnc(C2CCOC2)s1` (stereo not drawn) [Compound 322, 7-(4-(isopropylamino)-5-(5-(tetrahydrofuran-3-yl)-1,3,4-thiadiazol-2-yl)pyridin-2-yl)pyrrolo[1,2-b]pyridazine-3-carbonitrile], the EC50 in the assay with TNFα (setting [2]) worked out at 419 nM. Besides, the half-maximal inhibitory concentration (IC50) at IRAK4 enzyme was determined as 0.31 nM.

Take `CC(=O)N[C@H]1CN(c2nnc(-c3cnc(-c4ccc5cc(C#N)cnn45)cc3NC(C)C)s2)CC12CC2` [Compound 323, (R)-N-(5-(5-(6-(3-cyanopyrrolo[1,2-b]pyridazin-7-yl)-4-(isopropylamino)pyridin-3-yl)-1,3,4-thiadiazol-2-yl)-5-azaspiro[2.4]heptan-7-yl)acetamide]: the EC50 in the assay with TNFα (setting [2]) amounted to 3.7 nM. At IRAK4 enzyme, this compound had an IC50 of 0.62 nM.

As for `CC(=O)N[C@@H]1CN(c2nnc(-c3cnc(-c4ccc5cc(C#N)cnn45)cc3NC(C)C)s2)CC12CC2` [Compound 324, (S)-N-(5-(5-(6-(3-cyanopyrrolo[1,2-b]pyridazin-7-yl)-4-(isopropylamino)pyridin-3-yl)-1,3,4-thiadiazol-2-yl)-5-azaspiro[2.4]heptan-7-yl)acetamide], the EC50 with TNFα (setting [2]) stood at 19.1 nM. The compound also returned an IC50 at IRAK4 enzyme of 0.99 nM.

As to `CC(C)Nc1cc(-c2ccc3cc(C#N)cnn23)ncc1-c1nnc(-n2cccn2)s1` [Compound 325, 7-(5-(5-(1H-pyrazol-1-yl)-1,3,4-thiadiazol-2-yl)-4-(isopropylamino)pyridin-2-yl)pyrrolo[1,2-b]pyridazine-3-carbonitrile], the EC50 in the assay with TNFα (setting [2]) is 1000 nM. At IRAK4 enzyme, the IC50 worked out at 8.07 nM.

Turning to `CC(C)Nc1cc(-c2ccc3cc(C#N)cnn23)ncc1-c1nnc(-n2cnc(C3CC3)c2)s1` [Compound 326, 7-(5-(5-(4-cyclopropyl-1H-imidazol-1-yl)-1,3,4-thiadiazol-2-yl)-4-(isopropylamino)pyridin-2-yl)pyrrolo[1,2-b]pyridazine-3-carbonitrile], half-maximal inhibition against IRAK4 enzyme (IC50) required 6.01 nM.

`CC(=O)NC1CN(c2nnc(-c3cnc(-c4ccc5cc(C#N)cnn45)cc3NC(C)C)s2)CC1(F)F` (stereo not drawn) [Compound 327, N-(1-(5-(6-(3-cyanopyrrolo[1,2-b]pyridazin-7-yl)-4-(isopropylamino)pyridin-3-yl)-1,3,4-thiadiazol-2-yl)-4,4-difluoropyrrolidin-3-yl)acetamide]: the EC50 with TNFα (setting [2]) worked out at 10.2 nM. Moreover, at IRAK4 enzyme, the half-inhibitory concentration (IC50) came out at 0.37 nM.

On to `CC(C)Nc1cc(-c2ccc3cc(C#N)cnn23)ncc1-c1nnc(N2CC(N3CCC(F)(F)C3)C2)s1` [Compound 328, 7-(5-(5-(3-(3,3-difluoropyrrolidin-1-yl)azetidin-1-yl)-1,3,4-thiadiazol-2-yl)-4-(isopropylamino)pyridin-2-yl)pyrrolo[1,2-b]pyridazine-3-carbonitrile], for which the EC50 in the assay on TNFα (setting [2]) stood at 80.5 nM. On IRAK4 enzyme, this compound gave a half-maximal inhibitory concentration (IC50) of 1.02 nM.

Regarding `CC(=O)N[C@H]1CCN(c2nnc(-c3cnc(-c4ccc5cc(C#N)cnn45)cc3NC(C)C)s2)C[C@@H]1O` [Example 64, N-((3S,4S)-1-(5-(6-(3-cyanopyrrolo[1,2-b]pyridazin-7-yl)-4-(isopropylamino)pyridin-3-yl)-1,3,4-thiadiazol-2-yl)-3-hydroxypiperidin-4-yl)acetamide], the IC50 against IRAK4 enzyme turned out to be 0.28 nM.

These data come from patent US11702414B2, “Thiadiazole IRAK4 inhibitors” (Gilead Sciences, Inc., priority 2018, dated 2023).
